pIC50: −log10 of the molar value.
Tests used:
KB [1] = assay: Cytotoxicity against human KB cells assessed as growth inhibition after 72 hrs by MTT assay; type: functional, cell-based
MX1 [2] = assay: Cytotoxicity against human MX1 cells assessed as growth inhibition after 72 hrs by MTT assay; type: functional, cell-based; conditions: MX1, 72 h
A549 = assay: Cytotoxicity against human A549 cells assessed as growth inhibition after 72 hrs by MTT assay; type: functional, cell-based; conditions: A549, 72 h
HT-29 = assay: Cytotoxicity against human HT-29 cells assessed as growth inhibition after 72 hrs by MTT assay; type: functional, cell-based; conditions: HT-29, 72 h
BXPC-3 = assay: Cytotoxicity against human BxPC3 cells assessed as growth inhibition after 72 hrs by MTT assay; type: functional, cell-based; conditions: BXPC-3, 72 h
HepG2 = assay: Cytotoxicity against human HepG2 cells assessed as growth inhibition after 72 hrs by MTT assay; type: functional, cell-based; conditions: HepG2, 72 h
MCF7 = assay: Cytotoxicity against human MCF7 cells assessed as growth inhibition after 72 hrs by MTT assay; type: functional, cell-based; conditions: MCF7, 72 h
KB [3] = assay: Cytotoxicity against vincristine-resistant human KB cells assessed as growth inhibition after 72 hrs by MTT assay; type: functional, cell-based
MX1 [4] = assay: Cytotoxicity against taxol-resistant human MX1 cells assessed as growth inhibition after 72 hrs by MTT assay; type: functional, cell-based; conditions: MX1, 72 h
Mus musculus [5] = assay: Toxicity in KM mouse allografted with mouse H22 cells assessed as body weight at 0.5 mg/kg, ip administered on day 1 and 4 measured on day 8 (reference value: 30 +/- 3.24 g); type: organism-based; design: dose 0.5 mg/kg, route intraperitoneal; conditions: in vivo
H22 [6] = assay: Antitumor activity against mouse H22 cells allografted in KM mouse assessed as tumor growth inhibition at 0.5 mg/kg, ip administered on day 1 and 4 measured on day 8 relative to control; type: functional; conditions: route intraperitoneal, read-out: TGI
Mus musculus [7] = assay: Toxicity in KM mouse allografted with mouse H22 cells assessed as body weight at 0.25 mg/kg, ip administered on day 1 and 4 measured on day 8 (reference value: 30 +/- 3.24 g); type: organism-based; design: dose 0.25 mg/kg, route intraperitoneal; conditions: in vivo
H22 [8] = assay: Antitumor activity against mouse H22 cells allografted in KM mouse assessed as tumor growth inhibition at 0.25 mg/kg, ip administered on day 1 and 4 measured on day 8 relative to control; type: functional; conditions: route intraperitoneal, read-out: TGI

SMILES	pIC50 (KB [1])	pIC50 (MX1 [2])	pIC50 (A549)	pIC50 (HT-29)	pIC50 (BXPC-3)	pIC50 (HepG2)	pIC50 (MCF7)	pIC50 (KB [3])	pIC50 (MX1 [4])	Activity (Mus musculus [5])	inhibition in vivo at 0.5 mg/kg (H22 [6])	Activity (Mus musculus [7])	inhibition in vivo at 0.25 mg/kg (H22 [8])
COC(=O)n1cnc2c(-c3ocnc3-c3cc(OC)c(OC)c(OC)c3)ccc(OC)c21	6.97	6.62	8.52	7.96	7.35	7.60	7.33	7.28	5.31	–	–	–	–
COc1cc(-c2ncoc2-c2ccc(OC)c3c2ncn3CC#N)cc(OC)c1OC	–	–	5.59	6.72	5.66	7.11	7.05	–	–	–	–	–	–
CC[C@]1(O)C[C@H]2CN(CCc3c([nH]c4ccccc34)[C@@](C(=O)OC)(c3cc4c(cc3OC)N(C=O)[C@H]3[C@@](O)(C(=O)OC)[C@H](OC(C)=O)[C@]5(CC)C=CCN6CC[C@]43[C@@H]65)C2)C1 [VINCRISTINE]	6.86	7.92	7.28	7.92	< 6.30	6.68	7.89	< 4.00	7.12	25.5 g	61%	24.6 g	31%
CCOC(=O)Cn1cnc2c(OC)ccc(-c3ocnc3-c3cc(OC)c(OC)c(OC)c3)c21	–	–	7.63	6.46	< 6.30	6.30	6.38	–	–	–	–	–	–
COc1cc(-c2ncoc2-c2ccc(OC)c3c2ncn3CC(=O)O)cc(OC)c1OC	–	–	< 5.30	< 5.30	< 5.30	< 5.30	< 5.30	–	–	–	–	–	–
COc1cc(-c2ncoc2-c2ccc(OC)c3c2ncn3CC(N)=O)cc(OC)c1OC	–	–	–	< 5.00	–	6.00	< 5.00	–	–	–	–	–	–
COc1cc(-c2ncoc2-c2ccc(OC)c3c2ncn3CCCO)cc(OC)c1OC	6.39	< 5.00	–	5.65	–	6.39	5.68	< 5.00	4.68	–	–	–	–
COc1cc(-c2ncoc2-c2ccc(OC)c3ncn(CCO)c23)cc(OC)c1OC	–	–	–	6.74	–	6.89	6.27	–	–	–	–	–	–
COc1cc(-c2ncoc2-c2ccc(OC)c3ncn(CC#N)c23)cc(OC)c1OC	–	–	< 5.30	5.80	5.86	6.06	5.69	–	–	–	–	–	–
COC(=O)n1cnc2c(OC)ccc(-c3ocnc3-c3cc(OC)c(OC)c(OC)c3)c21	7.57	6.41	8.42	7.96	7.38	7.70	7.77	7.15	6.25	–	–	–	–
